Assay results: patent US20100041089A1, “IMPROVED METHOD FOR DETECTING CHEMICAL […]” (priority 2006, published 2010)

Tested on: promoter of yeast gene YKL071w
Test: Dissolved oxygen measurement with oxygen electrode using yeast transformed with YKL071w promoter linked to oxidase (pyridoxamine phosphate substrate)
Assay type: cell-based, Saccharomyces cerevisiae W303
Conditions: sample solutions A, B, C with 0.0053, 0.053, 0.53 ppm versus standard solution S; FIG. 4
Description: Primers for PCR to amplify the polynucleotide comprising the promoter of yeast gene YKL071w were prepared. Primers were designed using a primer design software, Oligo4.0-S, Sequencher I Mackintosh version. The base sequence of the upper primer was:
For PCR, yeast chromosome (Saccharomyces cerevisiae S288C, Cat.40802, Research Genetics, Inc.) was used as template, and the commercially available kit (KOD DNA Polymerase; Code KOD-101, Toyobo) was used as reagents. […]
The yeast in a steady state is diluted 500 times with the SD medium, and it is shake cultured at 25° C. for 15 hours. After confirming the logarithmic growth phase at which absorbance at 600 nm is within 0.2 to 0.5, different concentrations of TPN is loaded. […]
By comparing a temporal change in a measured current value for the sample solution A, B or C and a temporal change in a measured current value for the standard solution S, an amount of pyridoxamine phosphate oxidase produced by stimulation of the chemical substance (TPN) in respective solutions for measurement may be determined and, thereby, existence or a quantity of the chemical substance may be detected.

N#Cc1c(Cl)c(Cl)c(Cl)c(C#N)c1Cl [(9), 2,4,5,6-Tetrachloro-1,3-benzenedicarbonitrile]
Temporal change in current value for dissolved oxygen measurement: as the concentration of the chemical substance (TPN) becomes larger, a decreasing rate of a current value at an initial stage becomes larger and a steady state value after reaching a plateau becomes lower
